Target: T1, FimH (Escherichia coli, UniProt Q1R2J4)
T1 construct: endogenous in cells; host or cells: E. coli UTI89 whole bacteria, agglutinating guinea pig red blood cells
Type: cell-based
Settings: concentration reducing bacterial agglutination of guinea pig red blood cells by greater than 90%; UTI89 bacteria
Experimental: Hemagglutination Inhibition Assay (HAI)
The hemagglutination inhibition (HAI) assay was performed with UTI89 bacteria and guinea pig red blood cells, as previously described (S. J. Hultgren, W. R. Schwan, A. J. Schaeffer, J. L. Duncan Infect. Immun. 1986, 54, 613-620 and Jarvis, C.; Han, Z.; Kalas, V.; Klein, R.; Pinkner, J. S.; Ford, B.; Binkley, J.; Cusumano, C. K.; Cusumano, Z.; Mydock-McGrane, L.; Hultgren, S. J.; Janetka, J. W., ChemMedChem 2016, 11, 367-373).
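Also: concentration in nM.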

Row | Compound | HAI titer EC > 90
1 | COc1cc(-c2ccc([C@@H](O)[C@H]3O[C@H](CO)[C@@H](O)[C@H](O)[C@@H]3O)c(C)c2)ccc1F [Example 27] | “+++” (50-200 “+++”)
2 | COc1cc(C)cc(-c2ccc([C@@H](O)[C@H]3O[C@H](CO)[C@@H](O)[C@H](O)[C@@H]3O)c(C)c2)c1 [Example 65] | “+++” (50-200 “+++”)
3 | Cc1cc(-c2cc(C)c(F)c(F)c2)ccc1[C@@H](O)[C@H]1O[C@H](CO)[C@@H](O)[C@H](O)[C@@H]1O [Example 88] | “++++” (<50 “++++”)
4 | Cc1cc(-c2cc(OC(C)C)cc(C(F)(F)F)c2)ccc1[C@@H](O)[C@H]1O[C@H](CO)[C@@H](O)[C@H](O)[C@@H]1O [Example 90] | “+++” (50-200 “+++”)
5 | Cc1cc(-c2cc(F)c(C3CC3)c(F)c2)ccc1[C@@H](O)[C@H]1O[C@H](CO)[C@@H](O)[C@H](O)[C@@H]1O [Example 53] | “++++” (<50 “++++”)
6 | CCCc1c(F)cc(-c2ccc([C@@H](O)[C@H]3O[C@H](CO)[C@@H](O)[C@H](O)[C@@H]3O)c(C)c2)cc1F [Example 92] | “++++” (<50 “++++”)
7 | Cc1cc(-c2cc(F)cc(Cl)c2)ccc1[C@@H](O)[C@H]1O[C@H](CO)[C@@H](O)[C@H](O)[C@@H]1O [Example 22] | “++++” (<50 “++++”)
8 | Cc1cc(-c2cc(Cl)cc(C(F)(F)F)c2)ccc1[C@@H](O)[C@H]1O[C@H](CO)[C@@H](O)[C@H](O)[C@@H]1O [Example 26] | “++++” (<50 “++++”)
9 | Cc1cc(-c2cc(Cl)ccc2OC(C)C)ccc1[C@@H](O)[C@H]1O[C@H](CO)[C@@H](O)[C@H](O)[C@@H]1O [Example 10] | “++++” (<50 “++++”)
10 | Cc1cc(-c2cc(Cl)ccc2OC(F)(F)F)ccc1[C@@H](O)[C@H]1O[C@H](CO)[C@@H](O)[C@H](O)[C@@H]1O [Example 55] | “+++” (50-200 “+++”)
11 | Cc1cc(-c2cc(C)c(Cl)c(C)c2)ccc1[C@@H](O)[C@H]1O[C@H](CO)[C@@H](O)[C@H](O)[C@@H]1O [Example 12] | “+++” (50-200 “+++”)
12 | Cc1cc(-c2ccc(F)c(C(F)(F)F)c2)ccc1[C@@H](O)[C@H]1O[C@H](CO)[C@@H](O)[C@H](O)[C@@H]1O [Example 25] | “++++” (<50 “++++”)
13 | Cc1cc(-c2cc(F)c(C(C)O)c(F)c2)ccc1[C@@H](O)[C@H]1O[C@H](CO)[C@@H](O)[C@H](O)[C@@H]1O (single isomer, unassigned) [Example 108] | “++++” (<50 “++++”)
14 | OC[C@H]1O[C@H]([C@H](O)c2ccc(-c3cc(F)cc(F)c3)cc2Cl)[C@@H](O)[C@@H](O)[C@@H]1O [Example 29] | “+++” (50-200 “+++”)
15 | Cc1cc(-c2ccc(C(F)(F)F)cc2)ccc1[C@@H](O)[C@H]1O[C@H](CO)[C@@H](O)[C@H](O)[C@@H]1O [Example 105] | “+++” (50-200 “+++”)
16 | COc1c(F)cc(-c2ccc([C@@H](O)[C@H]3O[C@H](CO)[C@@H](O)[C@H](O)[C@@H]3O)c(C)c2)cc1F [Example 35] | “++++” (<50 “++++”)
17 | Cc1cc(-c2cc(F)c(C(C)O)c(F)c2)ccc1C(O)C1OC(CO)C(O)C(O)C1O (mixture of isomers) [Example 95] | “++++” (<50 “++++”)
18 | Cc1cc(-c2cc(F)cc(N(C)C)c2)ccc1[C@@H](O)[C@H]1O[C@H](CO)[C@@H](O)[C@H](O)[C@@H]1O [Example 109] | “++++” (<50 “++++”)
19 | Cc1cc(-c2cc(F)cc(OC3CC3)c2)ccc1[C@@H](O)[C@H]1O[C@H](CO)[C@@H](O)[C@H](O)[C@@H]1O [Example 51] | “++++” (<50 “++++”)
20 | Cc1cc(-c2cc(Cl)c(C3CC3)cc2F)ccc1[C@@H](O)[C@H]1O[C@H](CO)[C@@H](O)[C@H](O)[C@@H]1O [Example 56] | “+++” (50-200 “+++”)
21 | Cc1cc(-c2ccc(C(F)(F)F)c(C)c2)ccc1[C@@H](O)[C@H]1O[C@H](CO)[C@@H](O)[C@H](O)[C@@H]1O [Example 66] | “++++” (<50 “++++”)
22 | Cc1cc(-c2ccc(C3CC3)c(F)c2)ccc1[C@@H](O)[C@H]1O[C@H](CO)[C@@H](O)[C@H](O)[C@@H]1O [Example 38] | “+++” (50-200 “+++”)
23 | Cc1cc(-c2cc(F)c(OC(F)F)c(F)c2)ccc1[C@@H](O)[C@H]1O[C@H](CO)[C@@H](O)[C@H](O)[C@@H]1O [Example 96] | “++++” (<50 “++++”)
24 | Cc1cc(-c2ccc(F)c(OC(F)(F)F)c2)ccc1[C@@H](O)[C@H]1O[C@H](CO)[C@@H](O)[C@H](O)[C@@H]1O [Example 31] | “+++” (50-200 “+++”)
25 | C#Cc1c(F)cc(-c2ccc([C@@H](O)[C@H]3O[C@H](CO)[C@@H](O)[C@H](O)[C@@H]3O)c(C)c2)cc1F [Example 103] | “++++” (<50 “++++”)
26 | COc1cc(-c2ccc([C@@H](O)[C@H]3O[C@H](CO)[C@@H](O)[C@H](O)[C@@H]3O)c(C)c2)cc(OC)c1F [Example 39] | “++++” (<50 “++++”)

Row | Compound | HAI titer EC > 90
27 | Cc1cc(-c2ccc(Cl)c(C(F)(F)F)c2)ccc1[C@@H](O)[C@H]1O[C@H](CO)[C@@H](O)[C@H](O)[C@@H]1O [Example 30] | “++++” (<50 “++++”)
28 | Cc1ccc(-c2ccc([C@@H](O)[C@H]3O[C@H](CO)[C@@H](O)[C@H](O)[C@@H]3O)c(C)c2)cc1F [Example 57] | “+++” (50-200 “+++”)
29 | Cc1cc(-c2cc(C(F)F)cc(C(F)F)c2)ccc1[C@@H](O)[C@H]1O[C@H](CO)[C@@H](O)[C@H](O)[C@@H]1O [Example 86] | “++++” (<50 “++++”)
30 | Cc1cc(-c2cc(F)cc(OC(F)(F)F)c2)ccc1[C@@H](O)[C@H]1O[C@H](CO)[C@@H](O)[C@H](O)[C@@H]1O [Example 36] | “++++” (<50 “++++”)
31 | Cc1cc(-c2cc(OC(F)(F)F)ccc2F)ccc1[C@@H](O)[C@H]1O[C@H](CO)[C@@H](O)[C@H](O)[C@@H]1O [Example 43] | “+++” (50-200 “+++”)
32 | Cc1cc(-c2ccc(C(F)(F)F)c(F)c2F)ccc1[C@@H](O)[C@H]1O[C@H](CO)[C@@H](O)[C@H](O)[C@@H]1O [Example 49] | “+++” (50-200 “+++”)
33 | Cc1cc(-c2ccc(C(F)(F)F)cc2F)ccc1[C@@H](O)[C@H]1O[C@H](CO)[C@@H](O)[C@H](O)[C@@H]1O [Example 42] | “+++” (50-200 “+++”)
34 | Cc1cc(-c2ccc(C3CC3)cc2)ccc1[C@@H](O)[C@H]1O[C@H](CO)[C@@H](O)[C@H](O)[C@@H]1O [Example 100] | “+++” (50-200 “+++”)
35 | OC[C@H]1O[C@H]([C@H](O)c2ccc(-c3cc(F)c(F)c(F)c3)cc2C(F)(F)F)[C@@H](O)[C@@H](O)[C@@H]1O [Example 97] | “++++” (<50 “++++”)
36 | Cc1cc(-c2ccc(F)cc2)ccc1[C@@H](O)[C@H]1O[C@H](CO)[C@@H](O)[C@H](O)[C@@H]1O [Example 98] | “+++” (50-200 “+++”)
37 | COc1cc(OC)cc(-c2ccc([C@@H](O)[C@H]3O[C@H](CO)[C@@H](O)[C@H](O)[C@@H]3O)c(C)c2)c1 [Example 33] | “++++” (<50 “++++”)
38 | Cc1cc(-c2cc(F)c(F)c(C(F)(F)F)c2)ccc1[C@@H](O)[C@H]1O[C@H](CO)[C@@H](O)[C@H](O)[C@@H]1O [Example 110] | “++++” (<50 “++++”)
39 | Cc1cc(-c2cc(F)c(N(C)C)c(F)c2)ccc1[C@@H](O)[C@H]1O[C@H](CO)[C@@H](O)[C@H](O)[C@@H]1O [Example 104] | “++++” (<50 “++++”)
40 | Cc1cc(-c2cccc(F)c2)ccc1[C@@H](O)[C@H]1O[C@H](CO)[C@@H](O)[C@H](O)[C@@H]1O [Example 77] | “+++” (50-200 “+++”)
41 | CCOc1ccc(-c2ccc([C@@H](O)[C@H]3O[C@H](CO)[C@@H](O)[C@H](O)[C@@H]3O)c(C)c2)cc1F [Example 81] | “++++” (<50 “++++”)
42 | COc1cc(-c2ccc([C@@H](O)[C@H]3O[C@H](CO)[C@@H](O)[C@H](O)[C@@H]3O)c(C)c2)cc(F)c1F [Example 34] | “++++” (<50 “++++”)
43 | COCc1c(F)cc(-c2ccc([C@@H](O)[C@H]3O[C@H](CO)[C@@H](O)[C@H](O)[C@@H]3O)c(C)c2)cc1F [Example 102] | “++++” (<50 “++++”)
44 | Cc1cc(F)c(-c2ccc([C@@H](O)[C@H]3O[C@H](CO)[C@@H](O)[C@H](O)[C@@H]3O)c(C)c2)cc1F [Example 45] | “++++” (<50 “++++”)
45 | Cc1cc(Cl)c(-c2ccc([C@@H](O)[C@H]3O[C@H](CO)[C@@H](O)[C@H](O)[C@@H]3O)c(C)c2)cc1F [Example 50] | “+++” (50-200 “+++”)
46 | COc1c(F)cc(-c2ccc([C@@H](O)[C@H]3O[C@H](CO)[C@@H](O)[C@H](O)[C@@H]3O)c(C)c2)cc1Cl [Example 71] | “++++” (<50 “++++”)
47 | Cc1cc(-c2cc(C)c(C)c(F)c2)ccc1[C@@H](O)[C@H]1O[C@H](CO)[C@@H](O)[C@H](O)[C@@H]1O [Example 84] | “++++” (<50 “++++”)
48 | Cc1cc(-c2ccc([C@@H](O)[C@H]3O[C@H](CO)[C@@H](O)[C@H](O)[C@@H]3O)c(C)c2)c(F)cc1Cl [Example 40] | “+++” (50-200 “+++”)
49 | Cc1cc(-c2cc(C(F)(F)F)ccc2F)ccc1[C@@H](O)[C@H]1O[C@H](CO)[C@@H](O)[C@H](O)[C@@H]1O [Example 46] | “+++” (50-200 “+++”)
50 | Cc1cc(-c2ccc(Cl)cc2)ccc1[C@@H](O)[C@H]1O[C@H](CO)[C@@H](O)[C@H](O)[C@@H]1O [Example 99] | “+++” (50-200 “+++”)
51 | COc1ccc(-c2ccc([C@@H](O)[C@H]3O[C@H](CO)[C@@H](O)[C@H](O)[C@@H]3O)c(C)c2)cc1C(F)(F)F [Example 69] | “++++” (<50 “++++”)
52 | Cc1cc(-c2cc(C3CC3)ccc2F)ccc1[C@@H](O)[C@H]1O[C@H](CO)[C@@H](O)[C@H](O)[C@@H]1O [Example 54] | “+++” (50-200 “+++”)

Source: US12552824B2, “C-mannoside compounds useful for the treatment of urinary tract infections” (GLAXOSMITHKLINE INTELLECTUAL PROPERTY DEVELOPMENT LIMITED, priority 2018, dated 2026)
